In patent publication US11530213B2, “Naphthyridinone derivatives and their use in the treatment of arrhythmia” (NOVARTIS AG, priority 2016, dated 2022):

What follows are compounds tested against GIRK1/4 (Homo sapiens (Human), UniProt P48544+P48549) (assay: GIRK1/4 inhibition, Quattro (IonWorks) population patch clamp, inward potassium current in GIRK 1/4 HEK293 stable cells (test assay No. 1)). Conditions: percentage of current inhibition normalized to DMSO-only control.
Format: cell-based
Experimental: The activity of a compound according to the present invention can be assessed by the following in vitro method. • 1. Buffers: • a. External buffer: 10 mM NaCl, 50 mM Na Gluconate, 80 mM K Gluconate, 1.8 mM CaCl2, 1 mM MgCl2, 10 mM HEPES, 10 mM Glucose, pH 7.4; osmolality […]. • b. Internal buffer: 30 mM KCl, 100 mM K Gluconate, 1 mM MgCl2, 10 mM HEPES, 1 mM EGTA, 10 mM NaCl, pH 7.2; osmolality […]. • 2. Compounds: • a. Prepare seven-fold compound dilution series (10 mM to 20 uM) in 100% DMSO, in 384-well polypropylene plates. • b. Propafenone (Sigma Aldrich, catalog number P4670) is used as a positive control and DMSO for neutral control • c. Resuspend 1 ul of compounds in DMSO into 65.7 ul external buffer in 384-well polypropylene plate and load into Plate 1 section of Molecular Devices Quattro • 3. Quattro setup: • a. Load 384-well Population Patch Plate (Molecular Devices #9000-0902) into Quattro • b. Fill Quattro F-soak trough with 20% DMSO and 50% EtOH • c. Fill Quattro buffer trough with external buffer • d. Attach internal buffer flask to Quattro internal buffer tubing • e. Attach PBS (Phosphate Buffered Saline, minus Ca^++ and Mg^++, pH7.4) bottle to F-head & E-head wash on Quattro • 4. Antibiotic: • a. Resuspend 5.6 mg amphotericin B (Sigma Aldrich, catalog number A2411) in 175 ul DMSO • b. Add the resulting solution to 50 ml internal buffer, mix and attach to antibiotic tubing port on Quattro • 5. Cells: • a. Use GIRK 1/4 HEK293 stable cells (obtained from ChanTest, 14656 Neo Parkway, Cleveland, Ohio 44128) grown to […] confluency in the following cell culture medium: DMEM containing 10% (v/v) Fetal Bovine Serum, Penicillin/Streptomycin (at “1×” concentration from a 100× stock), 0.5 mg/ml G418 and 0.1 mg/ml Zeocin. • b. Wash cells with PBS (minus Ca^++ and Mg^++), Detach cells using Detachin (Genlantis, 11011 Torreyana, San Diego, Calif. 92121), and resuspend in external buffer (5 ml final volume at 2.0-2.1×10^6 cells/ml) • c. Load into cell trough of Quattro • 6. Assay Protocol: • Quattro is controlled using IonWorks v2 software to perform the following steps: • a. Add 3.5 ul cells plus 3.5 ul external buffer to wells of Quattro Patch Plate • b. Circulate amphotericin B and internal buffer onto cells • c. Apply the following voltage protocol: Pulse 1: 15 mV for 300 milliseconds (ms), followed by Pulse 2: −120 mV for 400 ms, then Pulse 3: −15 mV for 400 ms, and finally Pulse 4: −120 mV to 40 mV over 500 ms (this is a voltage ramp). • d. Measure magnitude of inward potassium current at time point between 1200-1220 ms from start of Pulse 1 (i.e. during the voltage ramp phase). • e. Add 3.5 ul of diluted compounds (or DMSO) to wells and repeat steps c-d (final compound concentrations are 50 uM to 0.1 uM, for potent compounds 0.5 uM to 0.01 uM and each concentration is tested in quadruplicate—i.e. in 4 separate wells). • f. The difference between current magnitude pre vs. post-compound gives a measure of GIRK1/4 inhibition. • 7. Data analysis:
IC50 values are calculated by plotting the percentage of current inhibition (normalized to the DMSO-only control) as a function of compound concentration using standard data analysis software.

Sequence of GIRK1/4 (P48549 whole entry): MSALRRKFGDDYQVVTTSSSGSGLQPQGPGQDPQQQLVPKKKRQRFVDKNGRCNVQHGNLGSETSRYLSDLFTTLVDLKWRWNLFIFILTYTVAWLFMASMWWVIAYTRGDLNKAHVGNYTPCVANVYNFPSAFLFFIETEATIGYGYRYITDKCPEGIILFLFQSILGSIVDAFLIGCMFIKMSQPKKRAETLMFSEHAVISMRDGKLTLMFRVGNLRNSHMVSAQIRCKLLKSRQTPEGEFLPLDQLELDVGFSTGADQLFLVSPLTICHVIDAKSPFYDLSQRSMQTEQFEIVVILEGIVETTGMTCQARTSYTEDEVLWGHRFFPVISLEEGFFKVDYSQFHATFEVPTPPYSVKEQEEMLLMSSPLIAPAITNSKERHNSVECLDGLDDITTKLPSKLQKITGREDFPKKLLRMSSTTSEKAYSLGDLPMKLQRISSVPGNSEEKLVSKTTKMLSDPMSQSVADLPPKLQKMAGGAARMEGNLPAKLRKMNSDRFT
Sequence of GIRK1/4 (P48544 whole entry): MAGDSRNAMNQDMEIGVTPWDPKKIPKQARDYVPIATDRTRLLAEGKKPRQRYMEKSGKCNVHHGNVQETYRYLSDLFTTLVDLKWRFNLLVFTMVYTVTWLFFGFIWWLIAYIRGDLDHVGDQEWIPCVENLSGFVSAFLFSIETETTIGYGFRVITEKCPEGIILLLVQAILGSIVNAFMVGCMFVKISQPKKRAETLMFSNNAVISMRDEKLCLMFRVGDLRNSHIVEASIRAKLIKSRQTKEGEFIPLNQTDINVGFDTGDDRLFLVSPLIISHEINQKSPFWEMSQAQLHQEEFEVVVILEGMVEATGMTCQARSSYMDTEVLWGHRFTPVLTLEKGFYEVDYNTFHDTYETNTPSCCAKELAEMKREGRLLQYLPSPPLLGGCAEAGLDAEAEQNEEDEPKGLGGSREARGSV

Row | IC50 | Structure (SMILES)
1 | 40 nM | Cc1cc(=O)c2c(OCCO)ncc(Cl)c2n1-c1c(Cl)cc(C#CCN2CCOCC2)cc1Cl [Example 91, 8-Chloro-1-(2,6-dichloro-4-(3-morpholinoprop-1-yn-1-yl)phenyl)-5-(2-hydroxyethoxy)-2-methyl-1,6-naphthyridin-4(1H)-one]
2 | 33 nM | Cc1cc(=O)c2c(OCCOCCOCCOCCO)ncc(Cl)c2n1-c1c(Cl)cc(F)cc1Cl [Example 32, 8-chloro-1-(2,6-dichloro-4-fluorophenyl)-5-(2-(2-(2-(2-hydroxyethoxy)ethoxy)ethoxy)ethoxy)-2-methyl-1,6-naphthyridin-4(1H)-one]
3 | 329 nM | Cc1cc(=O)c2c(-c3cnn(C)c3)cncc2n1-c1c(Cl)cc(C#N)cc1Cl [Example 73, 3,5-Dichloro-4-(2-methyl-5-(1-methyl-1H-pyrazol-4-yl)-4-oxo-1,7-naphthyridin-1(4H)-yl)benzonitrile]
4 | 168 nM | CCc1cc2c(c(OCC(O)CO)n1)c(=O)cc(C)n2-c1c(Cl)cccc1CC (centres unmarked) [Example 67, 1-(2-Chloro-6-ethylphenyl)-5-(2,3-dihydroxypropoxy)-7-ethyl-2-methyl-1,6-naphthyridin-4(1H)-one]
5 | 9 nM | Cc1cc(=O)c2c(OCCNS(C)(=O)=O)ncc(Cl)c2n1-c1c(Cl)cccc1Cl [Example 36, N-(2-((8-chloro-1-(2,6-dichlorophenyl)-2-methyl-4-oxo-1,4-dihydro-1,6-naphthyridin-5-yl)oxy)ethyl)methanesulfonamide]
6 | 41 nM | CS(=O)(=O)CCNc1ncc(Cl)c2c1c(=O)cc(CO)n2-c1c(Cl)cccc1Cl [Example 51, 8-chloro-1-(2,6-dichlorophenyl)-2-(hydroxymethyl)-5-((2-(methylsulfonyl)ethyl)amino)-1,6-naphthyridin-4(1H)-one]
7 | 3050 nM | Cc1cc(=O)c2c(NS(=O)(=O)c3cn[nH]c3)cncc2n1-c1c(Cl)cc(C#N)cc1Cl [Example 70, N-(1-(2,6-Dichloro-4-cyanophenyl)-2-methyl-4-oxo-1,4-dihydro-1,7-naphthyridin-5-yl)-1H-pyrazole-4-sulfonamide]
8 | 253 nM | Cc1cc(=O)c2c(OCCOCCOCCOCCOCCOCCO)ncc(Cl)c2n1-c1c(Cl)cc(F)cc1Cl [Example 24, 8-chloro-1-(2,6-dichloro-4-fluorophenyl)-5-((17-hydroxy-3,6,9,12,15-pentaoxaheptadecyl)oxy)-2-methyl-1,6-naphthyridin-4(1H)-one]
9 | 146 nM | Cc1cc(=O)c2c(N3CCN(CCO)CC3)ncc(Cl)c2n1-c1c(Cl)cc(C#N)cc1Cl [Example 25, 3,5-dichloro-4-(8-chloro-5-(4-(2-hydroxyethyl)piperazin-1-yl)-2-methyl-4-oxo-1,6-naphthyridin-1(4H)-yl)benzonitrile]
10 | 390 nM | CNc1cc2c(c(OCC(O)CO)n1)c(=O)cc(C)n2-c1c(Cl)cccc1Cl (centres unmarked) [Example 65, 1-(2,6-Dichlorophenyl)-5-(2,3-dihydroxpropoxy)-2-methyl-7-(methylamino)-1,6-naphthyridin-4(1H)-one]
11 | 28 nM | COCc1cc(=O)c2c(OCC(CO)CO)ncc(Cl)c2n1-c1c(Cl)cccc1Cl [Example 53, 8-chloro-1-(2,6-dichlorophenyl)-5-(3-hydroxy-2-(hydroxymethyl)propoxy)-2-(methoxymethyl)-1,6-naphthyridin-4(1H)-one]
12 | 327 nM | Cc1cc(=O)c2c(OCC(O)CO)ncc(Cl)c2n1-c1c(Cl)cc(C#CC(C)(C)N)cc1Cl (centres unmarked) [Example 90, 1-(4-(3-Amino-3-methylbut-1-yn-1-yl)-2,6-dichlorophenyl)-8-chloro-5-(2,3-dihydroxypropoxy)-2-methyl-1,6-naphthyridin-4(1H)-one]
13 | 505 nM | Cc1cc(=O)c2c(N3CC(O)C3)cncc2n1-c1c(Cl)cc(C#N)cc1Cl [Example 29, 3,5-dichloro-4-(5-(3-hydroxyazetidin-1-yl)-2-methyl-4-oxo-1,7-naphthyridin-1(4H)-yl)benzonitrile]
14 | 26 nM | Cc1cc(=O)c2c(N[C@@H]3COC[C@H]3O)ncc(Cl)c2n1-c1c(Cl)cc(C#N)cc1Cl [Example 43, 3,5-dichloro-4-(8-chloro-5-(((3R,4S)-4-hydroxytetrahydrofuran-3-yl)amino)-2-methyl-4-oxo-1,6-naphthyridin-1(4H)-yl)benzonitrile]
15 | 176 nM | Cc1cc(=O)c2c(-n3cncn3)ncc(Cl)c2n1-c1c(Cl)cccc1Cl [Example 71, 8-Chloro-1-(2,6-dichlorophenyl)-2-methyl-5-(1H-1,2,4-triazol-1-yl)-1,6-naphthyridin-4(1H)-one]
16 | 16 nM | N#Cc1cc(=O)c2c(OCC(O)CO)ncc(Cl)c2n1-c1c(Cl)cccc1Cl (centres unmarked) [Example 63, 8-Chloro-1-(2,6-dichlorophenyl)-5-(2,3-dihydroxpropoxy)-4-oxo-1,4-dihydro-1,6-naphthyridine-2-carbonitrile]
17 | 147 nM | O=c1cc(CO)n(-c2c(Cl)cccc2Cl)c2c(Cl)cnc(C(O)CO)c12 (centres unmarked) [Example 82, 8-Chloro-1-(2,6-dichlorophenyl)-5-(1,2-dihydroxyethyl)-2-(hydroxymethyl)-1,6-naphthyridin-4(1H)-one]
18 | 13 nM | O=c1cc(C(F)F)n(-c2c(Cl)cccc2Cl)c2c(Cl)cnc(OCC(O)CO)c12 (centres unmarked) [Example 62, 8-Chloro-1-(2,6-dichlorophenyl)-2-(difluoromethyl)-5-(2,3-dihydroxypropoxy)-1,6-naphthyridin-4(1H)-one]
19 | 54 nM | N#Cc1cccc(Cl)c1-n1c(C2CC2)cc(=O)c2c(OCC(O)CO)ncc(Cl)c21 (centres unmarked) [Example 55, 3-chloro-2-(8-chloro-2-cyclopropyl-5-(2,3-dihydroxypropoxy)-4-oxo-1,6-naphthyridin-1(4H)-yl)benzonitrile]
20 | 42 nM | Cc1cc(=O)c2c(NOCCO)ncc(Cl)c2n1-c1c(Cl)cccc1Cl [Example 49, 8-chloro-1-(2,6-dichlorophenyl)-5-((2-hydroxyethoxy)amino)-2-methyl-1,6-naphthyridin-4(1H)-one]
21 | 278 nM | O=c1cc(CO)n(-c2c(Cl)cccc2Cl)c2c(Cl)cnc(C(O)CO)c12 (single isomer, unassigned) [Example 83, 8-Chloro-1-(2,6-dichlorophenyl)-5-(1,2-dihydroxyethyl)-2-(hydroxymethyl)-1,6-naphthyridin-4(1H)-one]
22 | 69 nM | O=c1cc(CO)n(-c2c(Cl)cccc2Cl)c2c(Cl)cnc(CCCO)c12 [Example 74, 8-Chloro-1-(2,6-dichlorophenyl)-2-(hydroxymethyl)-5-(3-hydroxypropyl)-1,6-naphthyridin-4(1H)-one]
23 | 173 nM | Cc1cc(=O)c2c(OCC(O)COCC(O)CO)ncc(Cl)c2n1-c1c(Cl)cccc1Cl (centres unmarked) [Example 20, 8-chloro-1-(2,6-dichlorophenyl)-5-(3-(2,3-dihydroxypropoxy)-2-hydroxypropoxy)-2-methyl-1,6-naphthyridin-4(1H)-one]
24 | 240 nM | Cc1cc(=O)c2c(OCC(O)CO)ncc(Cl)c2n1-c1c(Cl)cccc1C#N (centres unmarked) [Example 34, 3-chloro-2-(8-chloro-5-(2,3-dihydroxypropoxy)-2-methyl-4-oxo-1,6-naphthyridin-1(4H)-yl)benzonitrile]
25 | 52 nM | Cc1cc(=O)c2c(OCCOCCOCCOCCOCCO)ncc(Cl)c2n1-c1c(Cl)cccc1Cl [Example 14, 8-chloro-1-(2,6-dichlorophenyl)-5-((14-hydroxy-3,6,9,12-tetraoxatetradecyl)oxy)-2-methyl-1,6-naphthyridin-4(1H)-one]
26 | 35 nM | Cc1cc(=O)c2c(NCCc3c[nH]cn3)ncc(Cl)c2n1-c1c(Cl)cccc1Cl [Example 35, 5-((2-(1H-imidazol-4-yl)ethyl)amino)-8-chloro-1-(2,6-dichlorophenyl)-2-methyl-1,6-naphthyridin-4(1H)-one]
